According to patent US6987114B1, “Antiviral pyrimidinedione derivatives and process for the preparation thereof” (Samjin Pharmaceutical Co., Ltd, priority 1999, dated 2006):
≈ marks a conversion by molar mass, not a printed value. Where two headings read alike, the source gives them in different places.

Tests used:
HIV = assay: microbe, parasite or virus in culture; format: cell-based
Procedure: Anti-HIV activity tests in vitro of the compounds according to the present invention were performed as described in J. Med. Chem, 34, 357, 1991. Inhibition by the compounds of virus-induced cytotoxic effect in MT-4 cells was measured as follows.
(§1) MT-4 cells were suspended in culture media at 2.5×10^5 cells/ml and infected with 1000 CCID50 (50% cell culture infective dose) of HIV. Immediately after virus infection, 100 μl of cell suspension was brought into each well of a flat-bottomed microtitray containing various concentrations of the test compounds. After 4 or 5 days incubation at 37° C., efficacy of the compounds was determined by the MTT method. Cytotoxicity of the compounds was assessed in parallel with their antiviral activity, based on viability of mock-infected host cells as determined by the MTT method.

mock-infected MT-4 cells = assay: Cytotoxicity based on viability of mock-infected host cells (MTT method); format: cell-based
Procedure: as §1

[1] = Human immunodeficiency virus 1, MT4, HIV-infected MT-4 cells, MTT method, 4 or 5 days at 37° C., read-out: ED50 (the source's name)
[2] = mock-infected MT-4 cells, MTT method, 4 or 5 days at 37° C.
[3] = Human immunodeficiency virus 1, MT4, read-out: ED50
[4] = HIV-infected MT-4 cells, MTT method, 4 or 5 days at 37° C.

SMILES | EC50 (HIV; [1]) [ng/mL] | melting point [°C] | CD50 (mock-infected MT-4 cells; [2]) [µg/mL] | EC50 (HIV; [3]) [ng/mL] | ED50 (HIV; [4]) [ng/mL] | CD50 (mock-infected MT-4 cells) [µg/mL]
CCc1c(Sc2cc(C)cc(C)c2)n(CC2CC2)c(=O)[nH]c1=O [Example 1, 1-(Cyclopropyl)methyl-5-ethyl-6-(3,5-dimethylphenyl)thio-2,4-pyrimidinedione] | 2.7 (≈ 0.00817 µM) | 161 to 163 | 4.75 |  |  | 
Cc1cc(C)cc(Oc2c(C(C)C)c(=O)[nH]c(=O)n2CC2CC2)c1 [Example 4, 1-(Cyclopropyl)methyl-5-isopropyl-6-(3,5-dimethylphenoxy)-2,4-pyrimidinedione] | < 0.2 | 146 to 148 | 12.70 |  |  | 
CCc1c(C(=O)c2cc(C)cc(C)c2)n(CC2CC2)c(=O)[nH]c1=O [Example 5, 1-(Cyclopropyl)methyl-5-ethyl-6-(3,5-dimethylbenzoyl)-2,4-pyrimidinedione] | 1.1 (≈ 0.00337 µM) | 234 to 236 | 39.4 |  |  | 
Cc1cc(C)cc(C(=O)c2c(C(C)C)c(=O)[nH]c(=O)n2CC2CC2)c1 [Example 6, 1-(Cyclopropyl)methyl-5-isopropyl-6-(3,5-dimethylbenzoyl)-2,4-pyrimidinedione] | 2.2 (≈ 0.00646 µM) | 193 to 195 | 8.5 |  |  | 
CCc1c(C(=O)c2cc(C)cc(C)c2)n(CC2CCC2)c(=O)[nH]c1=O [Example 11, 1-(Cyclobutyl)methyl-5-ethyl-6-(3,5-dimethylbenzoyl)-2,4-pyrimidinedione] | 2.7 (≈ 0.00793 µM) | 200 to 202 | 89.1 |  |  | 
Cc1cc(C)cc(C(=O)c2c(C(C)C)c(=O)[nH]c(=O)n2CC2CCC2)c1 [Example 12, 1-(Cyclobutyl)methyl-5-isopropyl-6-(3,5-dimethylbenzoyl)-2,4-pyrimidinedione] | 2.7 (≈ 0.00762 µM) | 171 to 173 | 8.5 |  |  | 
CCc1c(C(=O)c2cc(C)cc(C)c2)n(CC2CCCCC2)c(=O)[nH]c1=O [Example 17, 1-(Cyclohexyl)methyl-5-ethyl-6-(3,5-dimethylbenzoyl)-2,4-pyrimidinedione] |  | 177 to 179 | 7.10 | 13 (≈ 0.0353 µM) |  | 
Cc1cc(C)cc(C(=O)c2c(C(C)C)c(=O)[nH]c(=O)n2CC2CCCCC2)c1 [Example 18, 1-(Cyclohexyl)methyl-5-isopropyl-6-(3,5-dimethylbenzoyl)-2,4-pyrimidinedione] |  | 160 to 162 | 8.00 | 13 (≈ 0.034 µM) |  | 
CCc1c(C(=O)c2cc(C)cc(C)c2)n(Cc2ccccc2)c(=O)[nH]c1=O [Example 23, 1-Benzyl-5-ethyl-6-(3,5-dimethylbenzoyl)-2,4-pyrimidine-dione] | 1.6 (≈ 0.00441 µM) | 202 to 204 | 8.00 |  |  | 
Cc1cc(C)cc(C(=O)c2c(C(C)C)c(=O)[nH]c(=O)n2Cc2ccccc2)c1 [Example 24, 1-Benzyl-5-isopropyl-6-(3,5-dimethylbenzoyl)-2,4-pyrimidinedione] | 0.9 (≈ 0.00239 µM) | 188 to 190 | 5.20 |  |  | 
CCc1c(Sc2cc(C)cc(C)c2)n(Cc2cccc(OC)c2)c(=O)[nH]c1=O [Example 25, 1-(3-Methoxybenzyl)-5-ethyl-6-(3,5-dimethylphenyl)thio-2,4-pyrimidinedione] | 3 (≈ 0.00757 µM) | 130 to 131 | 9.04 |  |  | 
COc1cccc(Cn2c(Sc3cc(C)cc(C)c3)c(C(C)C)c(=O)[nH]c2=O)c1 [Example 26, 1-(3-Methoxybenzyl)-5-isopropyl-6-(3,5-dimethylphenyl)thio-2,4-pyrimidinedione] | 3 (≈ 0.00731 µM) | 135 to 137 | 9.53 |  |  | 
CCc1c(Oc2cc(C)cc(C)c2)n(Cc2cccc(OC)c2)c(=O)[nH]c1=O [Example 27, 1-(3-Methoxybenzyl)-5-ethyl-6-(3,5-dimethylphenoxy)-2,4-pyrimidinedione] | 14 (≈ 0.0368 µM) | 133 to 135 | 10.68 |  |  | 
COc1cccc(Cn2c(Oc3cc(C)cc(C)c3)c(C(C)C)c(=O)[nH]c2=O)c1 [Example 28, 1-(3-Methoxybenzyl)-5-isopropyl-6-(3,5-dimethylphenoxy)-2,4-pyrimidinedione] | 6 (≈ 0.0152 µM) | 158 to 159 | 30.60 |  |  | 
CCc1c(C(=O)c2cc(C)cc(C)c2)n(Cc2cccc(OC)c2)c(=O)[nH]c1=O [Example 29, 1-(3-Methoxybenzyl)-5-ethyl-6-(3,5-dimethylbenzoyl)-2,4-pyrimidinedione] | 3 (≈ 0.00764 µM) | 185 to 187 | 7.22 |  |  | 
COc1cccc(Cn2c(C(=O)c3cc(C)cc(C)c3)c(C(C)C)c(=O)[nH]c2=O)c1 [Example 30, 1-(3-Methoxybenzyl)-5-isopropyl-6-(3,5-dimethylbenzoyl)-2,4-pyrimidinedione] | 2 (≈ 0.00492 µM) | 184 to 186 | 3.83 |  |  | 
Cc1cc(C)cc(C(=O)c2c(C(C)C)c(=O)[nH]c(=O)n2CC2CO2)c1 (stereo not drawn) [Example 140, 1-(2,3-Epoxypropyl)-5-isopropyl-6-(3,5-dimethylbenzoyl)-2,4-pyrimidinedione] |  |  | 41.90 | 94 (≈ 0.275 µM) |  | 
CCc1c(Sc2cc(C)cc(C)c2)n(Cc2occc2C(=O)OC)c(=O)[nH]c1=O [Example 151, 1-(3-Methoxycarbonyl-2-furanylmethyl)-5-ethyl-6-(3,55 dimethylphenyl)thio-2,4-pyrimidinedione] |  |  |  |  | 15 (≈ 0.0362 µM) | 8.67
CCC(=O)Cn1c(C(=O)c2cc(C)cc(C)c2)c(CC)c(=O)[nH]c1=O [Example 163, 1-(2-Butanon-1-yl)-5-ethyl-6-(3,5-dimethylbenzoyl) δ 2,4-pyrimidinedione] |  |  | 9.31 |  | 3.4 (≈ 0.00993 µM) | 

Second part, led by results:

EC50 (HIV; [1]) [ng/mL] | melting point [°C] | SMILES | CD50 (mock-infected MT-4 cells; [2]) [µg/mL] | EC50 (HIV; [3]) [ng/mL] | ED50 (HIV; [4]) [ng/mL] | CD50 (mock-infected MT-4 cells) [µg/mL]
17 (≈ 0.0377 µM) | 138 to 140 | CCc1c(Sc2cc(C)cc(C)c2)n(Cc2ccc(OC(F)(F)F)cc2)c(=O)[nH]c1=O [Example 31, 1-(4-Trifluoromethoxybenzyl)-5-ethyl-6-(3,5-dimethylphenyl)thio-2,4-pyrimidinedione] | 4.86 |  |  | 
17 (≈ 0.0366 µM) | 124 to 126 | Cc1cc(C)cc(Sc2c(C(C)C)c(=O)[nH]c(=O)n2Cc2ccc(OC(F)(F)F)cc2)c1 [Example 32, 1-(4-Trifluoromethoxybenzyl)-5-isopropyl-6-(3,5-dimethylphenyl)thio-2,4-pyrimidinedione] | 8.99 |  |  | 
69 (≈ 0.159 µM) | 148 to 150 | CCc1c(Oc2cc(C)cc(C)c2)n(Cc2ccc(OC(F)(F)F)cc2)c(=O)[nH]c1=O [Example 33, 1-(4-Trifluoromethoxybenzyl)-5-ethyl-6-(3,5-dimethyl-phenoxy)-2,4-pyrimidinedione] | >100.00 |  |  | 
45 (≈ 0.1 µM) | 173 to 175 | Cc1cc(C)cc(Oc2c(C(C)C)c(=O)[nH]c(=O)n2Cc2ccc(OC(F)(F)F)cc2)c1 [Example 34, 1-(4-Trifluoromethoxybenzyl)-5-isopropyl-6-(3,5-dimethylphenoxy)-2,4-pyrimidinedione] | 8.06 |  |  | 
4 (≈ 0.00896 µM) | 155 to 157 | CCc1c(C(=O)c2cc(C)cc(C)c2)n(Cc2ccc(OC(F)(F)F)cc2)c(=O)[nH]c1=O [Example 35, 1-(4-Trifluoromethoxybenzyl)-5-ethyl-6-(3,5-dimethylbenzoyl)-2,4-pyrimidinedione] | 33.83 |  |  | 
5 (≈ 0.0109 µM) | 79 to 81 | Cc1cc(C)cc(C(=O)c2c(C(C)C)c(=O)[nH]c(=O)n2Cc2ccc(OC(F)(F)F)cc2)c1 [Example 36, 1-(4-Trifluoromethoxybenzyl)-5-isopropyl-6-(3,5-dimethyl-benzoyl)-2,4-pyrimidinedione] | 7.88 |  |  | 
43 (≈ 0.11 µM) | 221 to 223 | CCc1c(Sc2cc(C)cc(C)c2)n(Cc2ccccc2C#N)c(=O)[nH]c1=O [Example 37, 1-(2-Cyanobenzyl)-5-ethyl-6-(3,5-dimethylphenyl)thio-2,4-pyrimidinedione] | >100.00 |  |  | 
82 (≈ 0.202 µM) | 238 to 240 | Cc1cc(C)cc(Sc2c(C(C)C)c(=O)[nH]c(=O)n2Cc2ccccc2C#N)c1 [Example 38, 1-(2-Cyanobenzyl)-5-isopropyl-6-(3,5-dimethylphenyl)-thio-2,4-pyrimidinedione] | >100.00 |  |  | 
619 (≈ 1.65 µM) | 267 to 270 | CCc1c(Oc2cc(C)cc(C)c2)n(Cc2ccccc2C#N)c(=O)[nH]c1=O [Example 39, 1-(2-Cyanobenzyl)-5-ethyl-6-(3,5-dimethylphenoxy)-2,4-pyrimidinedione] | 60.47 |  |  | 
> 100000 | 276 to 278 | Cc1cc(C)cc(Oc2c(C(C)C)c(=O)[nH]c(=O)n2Cc2ccccc2C#N)c1 [Example 40, 1-(2-Cyanobenzyl)-5-isopropyl-6-(3,5-dimethylphenoxy)-2,4-pyrimidinedione] | >100.00 |  |  | 
3 (≈ 0.00774 µM) | 257 to 259 | CCc1c(C(=O)c2cc(C)cc(C)c2)n(Cc2ccccc2C#N)c(=O)[nH]c1=O [Example 41, 1-(2-Cyanobenzyl)-5-ethyl-6-(3,5-dimethylbenzoyl)-2,4-pyrimidinedione] | 2.56 |  |  | 
